In ChEMBL document CHEMBL1201862, “PubChem BioAssay data set” (2004):
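Each compound was tested at five concentrations against cells in 96-well plates for 48 hours. Abbreviation: GI50, concentration required for 50% inhibition of growth.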 Calls of active or inactive are those of the source. No stated cut-off is given here; in the data, active = GI50 up to about 1.1 µM and inactive = higher.

What was measured:
Assay in all cases: DTP human tumour cell line panel, 48 h
SN12C = system: SN12C
OVCAR-4 = system: OVCAR-4
UO-31 = system: UO-31
SF-539 = system: SF-539
SR = system: SR
T47D = system: T47D
MDA-N = system: MDA-N
HL-60 = system: HL-60
MOLT-4 = system: MOLT-4
M14 = system: M14
SK-MEL-2 = system: SK-MEL-2
OVCAR-8 = system: OVCAR-8
OVCAR-5 = system: OVCAR-5
PC-3 = system: PC-3
ACHN = system: ACHN
BT-549 = system: BT-549
SNB-19 = system: SNB-19
A549 = system: A549
A498 = system: A498
SF-268 = system: SF-268
Hs-578T = system: Hs-578T
TK-10 = system: TK-10
SF-295 = system: SF-295
OVCAR-3 = system: OVCAR-3
CAKI-1 = system: CAKI-1
LOX IMVI = system: LOX IMVI
HCT-116 = system: HCT-116
U-251 = system: U-251
SK-MEL-28 = system: SK-MEL-28
UACC-257 = system: UACC-257
HOP-62 = system: HOP-62
DU-145 = system: DU-145
NCI-H522 = system: NCI-H522
UACC-62 = system: UACC-62
SK-OV-3 = system: SK-OV-3
CCRF-CEM = system: CCRF-CEM
MDA-MB-231 = system: MDA-MB-231
IGROV-1 = system: IGROV-1
786-0 = system: 786-0
MDA-MB-435 = system: MDA-MB-435
COLO 205 = system: COLO 205
Malme-3M = system: Malme-3M
K562 = system: K562
RXF 393 = system: RXF 393
SNB-75 = system: SNB-75
NCI-H226 = system: NCI-H226
HOP-92 = system: HOP-92
SK-MEL-5 = system: SK-MEL-5
HT-29 = system: HT-29
NCI/ADR-RES = system: NCI/ADR-RES
MCF7 = system: MCF7
HCT-15 = system: HCT-15
EKVX = system: EKVX
NCI-H23 = system: NCI-H23
KM12 = system: KM12
SW-620 = system: SW-620
RPMI-8226 = system: RPMI-8226
NCI-H460 = system: NCI-H460

SMILES: COc1ccc(C(=O)/C=C/c2ccncc2)cc1OC
- GI50 (SN12C): 15.8 µM (inactive)
- GI50 (OVCAR-4): 11 µM (inactive)
- GI50 (UO-31): 14.9 µM (inactive)
- GI50 (SF-539): 10.3 µM (inactive)
- GI50 (SR): 6.49 µM (inactive)
- GI50 (T47D): 12.6 µM (inactive)
- GI50 (MDA-N): 13.1 µM (inactive)
- GI50 (HL-60): 2.04 µM (inactive)
- GI50 (MOLT-4): 8.32 µM (inactive)
- GI50 (M14): 14.7 µM (inactive)
- GI50 (SK-MEL-2): 16.7 µM (inactive)
- GI50 (OVCAR-8): 15.3 µM (inactive)
- GI50 (OVCAR-5): 14.3 µM (inactive)
- GI50 (PC-3): 16.7 µM (inactive)
- GI50 (ACHN): 14.9 µM (inactive)
- GI50 (BT-549): 6.22 µM (inactive)
- GI50 (SNB-19): 18.5 µM (inactive)
- GI50 (A549): 15.7 µM (inactive)
- GI50 (A498): 17.1 µM (inactive)
- GI50 (SF-268): 13.7 µM (inactive)
- GI50 (Hs-578T): 13.7 µM (inactive)
- GI50 (TK-10): 16.4 µM (inactive)
- GI50 (SF-295): 16.1 µM (inactive)
- GI50 (OVCAR-3): 6.27 µM (inactive)
- GI50 (CAKI-1): 15.7 µM (inactive)
- GI50 (LOX IMVI): 1.47 µM (inactive)
- GI50 (HCT-116): 6.44 µM (inactive)
- GI50 (U-251): 11.2 µM (inactive)
- GI50 (SK-MEL-28): 17.3 µM (inactive)
- GI50 (UACC-257): 12.9 µM (inactive)
- GI50 (HOP-62): 16.3 µM (inactive)
- GI50 (DU-145): 17.7 µM (inactive)
- GI50 (NCI-H522): 7.73 µM (inactive)
- GI50 (UACC-62): 15.5 µM (inactive)
- GI50 (SK-OV-3): 17.2 µM (inactive)
- GI50 (CCRF-CEM): 4.02 µM (inactive)
- GI50 (MDA-MB-231): 12 µM (inactive)
- GI50 (IGROV-1): 12.9 µM (inactive)
- GI50 (786-0): 11.4 µM (inactive)
- GI50 (MDA-MB-435): 14.8 µM (inactive)
- GI50 (COLO 205): 15.5 µM (inactive)
- GI50 (Malme-3M): 18.3 µM (inactive)
- GI50 (K562): 2.31 µM (inactive)
- GI50 (RXF 393): 12.6 µM (inactive)
- GI50 (SNB-75): 13.5 µM (inactive)
- GI50 (NCI-H226): 15.5 µM (inactive)
- GI50 (HOP-92): 14.1 µM (inactive)
- GI50 (SK-MEL-5): 16.4 µM (inactive)
- GI50 (HT-29): 8.93 µM (inactive)
- GI50 (NCI/ADR-RES): 19.7 µM (inactive)
- GI50 (MCF7): 3.74 µM (inactive)
- GI50 (HCT-15): 15.4 µM
- GI50 (EKVX): 16.7 µM (inactive)
- GI50 (NCI-H23): 10.7 µM (inactive)

SMILES: COc1ccc(NC(C)=O)c(C(=O)CCNC(C)=O)c1
- GI50 (SN12C): > 100 µM (inactive)
- GI50 (OVCAR-4): > 100 µM (inactive)
- GI50 (UO-31): > 100 µM (inactive)
- GI50 (SF-539): > 100 µM (inactive)
- GI50 (KM12): > 100 µM (inactive)
- GI50 (SR): > 100 µM (inactive)
- GI50 (T47D): > 100 µM (inactive)
- GI50 (MDA-N): > 100 µM (inactive)
- GI50 (HL-60): > 100 µM (inactive)
- GI50 (MOLT-4): > 100 µM (inactive)
- GI50 (M14): > 100 µM (inactive)
- GI50 (SK-MEL-2): > 100 µM (inactive)
- GI50 (OVCAR-8): > 100 µM (inactive)
- GI50 (OVCAR-5): > 100 µM (inactive)
- GI50 (PC-3): > 100 µM (inactive)
- GI50 (ACHN): > 100 µM (inactive)
- GI50 (BT-549): > 100 µM (inactive)
- GI50 (SNB-19): > 100 µM (inactive)
- GI50 (A549): > 100 µM (inactive)
- GI50 (A498): > 100 µM (inactive)
- GI50 (SF-268): > 100 µM (inactive)
- GI50 (Hs-578T): > 100 µM (inactive)
- GI50 (TK-10): > 100 µM (inactive)
- GI50 (SF-295): > 100 µM (inactive)
- GI50 (OVCAR-3): > 100 µM (inactive)
- GI50 (CAKI-1): > 100 µM (inactive)
- GI50 (LOX IMVI): > 100 µM (inactive)
- GI50 (HCT-116): > 100 µM (inactive)
- GI50 (U-251): > 100 µM (inactive)
- GI50 (UACC-257): > 100 µM (inactive)
- GI50 (SW-620): > 100 µM (inactive)
- GI50 (DU-145): > 100 µM (inactive)
- GI50 (NCI-H522): > 100 µM (inactive)
- GI50 (UACC-62): > 100 µM (inactive)
- GI50 (SK-OV-3): > 100 µM (inactive)
- GI50 (CCRF-CEM): > 100 µM (inactive)
- GI50 (MDA-MB-231): > 100 µM (inactive)
- GI50 (IGROV-1): > 100 µM (inactive)
- GI50 (786-0): > 100 µM (inactive)
- GI50 (MDA-MB-435): > 100 µM (inactive)
- GI50 (COLO 205): > 100 µM (inactive)
- GI50 (RPMI-8226): > 100 µM (inactive)
- GI50 (RXF 393): > 100 µM (inactive)
- GI50 (SNB-75): > 100 µM (inactive)
- GI50 (NCI-H226): > 100 µM (inactive)
- GI50 (HOP-92): > 100 µM (inactive)
- GI50 (SK-MEL-5): > 100 µM (inactive)
- GI50 (HT-29): > 100 µM (inactive)
- GI50 (NCI/ADR-RES): > 100 µM (inactive)
- GI50 (MCF7): > 100 µM (inactive)
- GI50 (HCT-15): > 100 µM
- GI50 (EKVX): > 100 µM (inactive)
- GI50 (NCI-H460): > 100 µM (inactive)
- GI50 (NCI-H23): > 100 µM (inactive)

SMILES: N/C(=N\Nc1nc2cc([N+](=O)[O-])ccc2o1)c1ccccn1
- GI50 (SN12C): 0.189 µM (active)
- GI50 (OVCAR-4): 0.179 µM (active)
- GI50 (SF-539): 0.124 µM (active)
- GI50 (KM12): 0.372 µM (active)
- GI50 (SR): 0.013 µM (active)
- GI50 (T47D): 0.073 µM (active)
- GI50 (MDA-N): 0.189 µM (active)
- GI50 (HL-60): 0.0594 µM (active)
- GI50 (MOLT-4): 0.0621 µM (active)
- GI50 (M14): 0.144 µM (active)
- GI50 (SK-MEL-2): 0.167 µM (active)
- GI50 (OVCAR-8): 0.0474 µM (active)
- GI50 (OVCAR-5): 0.137 µM (active)
- GI50 (PC-3): 0.122 µM (active)
- GI50 (ACHN): 0.0802 µM (active)
- GI50 (BT-549): 0.335 µM (active)
- GI50 (SNB-19): 0.506 µM (active)
- GI50 (A549): 0.163 µM (active)
- GI50 (A498): 0.248 µM (active)
- GI50 (SF-268): 0.0738 µM (active)
- GI50 (Hs-578T): 4.31 µM (inactive)
- GI50 (TK-10): 0.193 µM (active)
- GI50 (SF-295): 0.207 µM (active)
- GI50 (OVCAR-3): 0.0422 µM (active)
- GI50 (CAKI-1): 0.16 µM (active)
- GI50 (LOX IMVI): 0.071 µM (active)
- GI50 (HCT-116): 0.0369 µM (active)
- GI50 (U-251): 0.0966 µM (active)
- GI50 (SK-MEL-28): 0.222 µM (active)
- GI50 (UACC-257): 0.0929 µM (active)
- GI50 (SW-620): 0.113 µM (active)
- GI50 (HOP-62): 0.232 µM (active)
- GI50 (DU-145): 0.182 µM (active)
- GI50 (NCI-H522): 0.043 µM (active)
- GI50 (UACC-62): 0.0574 µM (active)
- GI50 (SK-OV-3): 0.403 µM (active)
- GI50 (CCRF-CEM): < 0.0223 µM (active)
- GI50 (MDA-MB-231): 0.114 µM (active)
- GI50 (IGROV-1): 0.147 µM (active)
- GI50 (786-0): 0.0897 µM (active)
- GI50 (MDA-MB-435): 0.551 µM (active)
- GI50 (COLO 205): 0.0366 µM (active)
- GI50 (RPMI-8226): 0.123 µM (active)
- GI50 (Malme-3M): 0.401 µM (active)
- GI50 (K562): 0.0673 µM (active)
- GI50 (RXF 393): 0.0622 µM (active)
- GI50 (SNB-75): 0.817 µM (active)
- GI50 (NCI-H226): 0.418 µM (active)
- GI50 (HOP-92): 0.242 µM (active)
- GI50 (SK-MEL-5): 0.157 µM (active)
- GI50 (HT-29): 0.0493 µM (active)
- GI50 (NCI/ADR-RES): 0.0404 µM (active)
- GI50 (MCF7): 0.12 µM (active)
- GI50 (HCT-15): 0.0287 µM
- GI50 (EKVX): 0.0257 µM (active)
- GI50 (NCI-H460): 0.0468 µM (active)
- GI50 (NCI-H23): 0.229 µM (active)
